Reference: US20260217716A1, “ANDROGEN RECEPTOR MODULATORS AND METHODS FOR THEIR USE” (Capulus Therapeutics, LLC, priority 2022, published 2026)
Where a chain is given by its changes, count along the chain named.

How the values were obtained:
[1] = target: T1, human AR (Homo sapiens, UniProt P10275); test: Indigo Biosciences AR reporter cell assay (AR inhibition, antagonist mode); format: cell-based; details: Table 2; luciferase reporter cells, 24 hr, EC80 of agonist 5α-dihydro-11-keto testosterone; read-out: AR Inhibition Indigo Cell Based: Avg IC50
T1 construct: Reporter Cells used in these assays expressed a native receptor (AR)
T1 sequence (P10275 1-920): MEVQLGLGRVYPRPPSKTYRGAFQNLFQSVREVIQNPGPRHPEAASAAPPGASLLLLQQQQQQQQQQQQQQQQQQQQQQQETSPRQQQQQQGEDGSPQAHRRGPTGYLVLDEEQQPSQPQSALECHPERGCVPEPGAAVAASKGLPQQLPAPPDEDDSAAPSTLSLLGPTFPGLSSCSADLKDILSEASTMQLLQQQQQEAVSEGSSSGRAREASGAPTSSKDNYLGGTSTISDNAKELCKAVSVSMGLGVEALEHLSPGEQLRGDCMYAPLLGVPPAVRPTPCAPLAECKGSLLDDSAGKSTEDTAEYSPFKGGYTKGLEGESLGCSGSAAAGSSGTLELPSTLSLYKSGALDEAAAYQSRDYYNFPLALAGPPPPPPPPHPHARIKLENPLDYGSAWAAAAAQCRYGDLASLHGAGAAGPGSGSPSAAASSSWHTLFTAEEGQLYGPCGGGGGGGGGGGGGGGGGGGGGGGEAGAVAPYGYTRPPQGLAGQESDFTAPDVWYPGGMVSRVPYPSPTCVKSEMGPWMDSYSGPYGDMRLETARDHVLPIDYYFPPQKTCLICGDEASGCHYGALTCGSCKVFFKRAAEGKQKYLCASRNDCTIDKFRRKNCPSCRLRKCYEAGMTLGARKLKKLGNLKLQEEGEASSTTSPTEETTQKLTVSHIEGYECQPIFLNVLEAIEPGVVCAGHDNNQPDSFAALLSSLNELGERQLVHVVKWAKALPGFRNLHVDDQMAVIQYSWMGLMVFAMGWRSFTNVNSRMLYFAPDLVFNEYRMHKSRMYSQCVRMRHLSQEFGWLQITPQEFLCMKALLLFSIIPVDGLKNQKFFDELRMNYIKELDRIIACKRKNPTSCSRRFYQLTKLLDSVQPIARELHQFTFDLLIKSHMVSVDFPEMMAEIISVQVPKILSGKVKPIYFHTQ
Method: The aim of this study was to evaluate compounds 1-12 and the comparative compounds 1-2 for inhibition activities against human AR. Reporter Cells used in these assays expressed a native receptor (AR). The reporter gene, firefly luciferase, is functionally linked to an upstream receptor-specific genetic response element (GRE). Reporter cells were treated with eight concentrations, starting at 50 μM and following with 3.17-fold dilutions. Single treatment concentration was performed (n=1). Assay performance was validated using the reference antagonist hydroxy flutamide. • Step 1: A suspension of reporter cells was prepared in Cell Recovery Medium (CRM). Reporter cells were first supplemented with 2×-EC80 concentration of the reference agonist, 5α-dihydro-11-keto testosterone, then 100 μl of the Reporter Cell suspension was dispensed into wells of a white 96-well assay plate. • Step 2: Test compound master stocks were diluted in DMSO to generate solutions at ‘500×-concentration’ relative to the final treatment concentration and diluted directly into INDIGO's Compound Screening Medium (CSM; containing charcoal-stripped FBS) to generate ‘2×-concentration’ treatment media. This was diluted into the wells to the final concentration. Assay plates were incubated at 37° C., 5% CO2 and ~70% humidity for 24 hr. • Step 3: Following the incubation period, wells were rinsed once with Live Cell Multiplex (LCM) Buffer, then LCM substrate was added. Following incubation at room temperature for 15 min, LCM substrate was discarded and 100 μL/well of luciferase detection reagent was added. Subsequently, fluorescence was measured to determine the relative number of live cells per assay well. RLU values were quantified after a 10 min incubation period at room temperature to determine nuclear receptor activities.

[2] = target: T2, Human androgen receptors (Homo sapiens, UniProt P10275, T878A); test: Biochemical AR LBD antagonism (Eurofins AR radioligand binding assay); details: Table 4; read-out: Biochemical AR LBD Antagonism: Average IC50
T2 construct: Human androgen receptors obtained from human LNCaP cells were used; host or cells: human LNCaP cells
T2 sequence (P10275 1-920 T878A): T1 sequence (P10275 1-920) with T878A
Method: Human androgen receptors obtained from human LNCaP cells were used in modified HEPES buffer pH 7.4. A 70 μg‡ aliquot was incubated with 0.5 nM [3H] Methyltrienolone for 20 h at 4° C. Non-specific binding was estimated in the presence of 1 μM testosterone. Receptors were filtered and washed, the filters were then counted to determine [3H] Methyltrienolone specifically bound. Compounds were screened at 10 μM.
Furthermore, as noted earlier, most clinically relevant AR inhibitors target the ligand binding domain (LBD) of the androgen receptor, and these inhibitors can lose efficacy due to point mutations in the LBD. Given that the AR protein contains multiple sub-domains, targeting other domains is an attractive approach for new inhibitors. […] Therefore, the compounds as described herein may be interacting with other subdomains in the AR protein, namely the N-terminal domain.

[3] = Human liver microsome stability; format: in vitro ADME; details: Table 6, human liver microsomes, 1 μM
Method: (§1) Preincubation mixture 2.5 μL Test Cpd. +75 μL Liver microsomes (human or mouse source) @ 3.33 mg/mL+85 µL of 100 mM potassium phosphate buffer (preincubate for 10 min @ 37° C.). Incubation mixture 62 μL of cofactor (2.85 mM)+Remaining incubation mixture (Incubated for 60 min @ 37° C.). Sample preparation 25 μL incubation mixture+200 μL of acetonitrile containing internal standard+Vortex 5 min @ 1200 rpm+Centrifuge 10 min @ 4000 rpm. Supernatant diluted 2-fold with water and injected on LC-MS/MS.

[4] = Mouse liver microsome stability; format: in vitro ADME; details: Table 6, mouse liver microsomes, 1 μM
Method: as §1

SMILES | IC50 [1] [nM] | IC50 [2] [nM] | Human LM: Rem @ 60 min [3] | Mouse LM: Rem @ 60 min [4]
Cc1nnc2ccc(N[C@H](C)c3ccc(F)cc3)nn12 [Compound 10, (R)—N-(1-(4-fluorophenyl)ethyl)-3-methyl-[1,2,4]triazolo[4,3-b]pyridazin-6-amine] | 51 to 500 | > 501 | +++ (>60.1: “+++”) | +++ (>60.1: “+++”)
C[C@@H](Nc1ccc2nnc(C(F)F)n2n1)c1ccc(F)cc1 [Compound 12] | 51 to 500 | > 501 | +++ (>60.1: “+++”) | +++ (>60.1: “+++”)
